{"source": "patent US4871722A", "about": "“Synergistic veterinary composition and/or fodder premix and process for preparing same” (priority 1987, dated 1989)", "key": {"Salmonella typhimurium": {"tested_on": "Salmonella typhimurium", "assay": "MIC by broth-dilution method (bactericidal effect), strain D", "format": "cell-based", "details": "Salmonella enterica, read-out: MIC value", "method": "(§1) The minimum inhibiting concentration (MIC) values of the above compounds and their two- or three-component combinations were determined in phenol-red - glucose broth (product of the Difco Co.) by using the broth-dilution method on the following bacterium strains isolated from chickens:\n(§2) D: Salmonella typhimurium"}, "Escherichia coli 1": {"tested_on": "Escherichia coli 1", "assay": "MIC by broth-dilution method (bactericidal effect), strain B", "format": "cell-based", "method": "(§3) The minimum inhibiting concentration (MIC) values of the above compounds and their two- or three-component combinations were determined in phenol-red - glucose broth (product of the Difco Co.) by using the broth-dilution method on the following bacterium strains isolated from chickens: […]"}, "Pasteurella multocida": {"tested_on": "Pasteurella multocida", "assay": "MIC by broth-dilution method (bactericidal effect), strain E", "format": "cell-based", "details": "read-out: MIC value", "method": "as §3"}, "Aspergillus fumigatus": {"tested_on": "Aspergillus fumigatus", "assay": "MIC by broth-dilution method (bactericidal effect), strain F", "format": "cell-based", "details": "read-out: MIC value", "method": "as §3"}, "Escherichia coli 2": {"tested_on": "Escherichia coli 2", "assay": "MIC by broth-dilution method (bactericidal effect), strain C", "format": "cell-based", "method": "as §3"}, "[1]": {"details": "in vivo; cited from earlier work"}, "Staphylococcus aureus": {"tested_on": "Staphylococcus aureus", "assay": "MIC by broth-dilution method (bactericidal effect), strain A", "format": "cell-based", "details": "read-out: MIC value", "method": "as §3"}, "[2]": {"tested_on": "bacterium strains isolated from chickens", "assay": "in vitro bacterial growth inhibition over the bacterium strains tested", "format": "cell-based", "details": "single compound", "method": "as §1, §2"}, "[3]": {"details": "in vivo"}, "[4]": {"details": "strain D: Salmonella typhimurium, phenol-red - glucose broth, bactericidal effect"}, "[5]": {"details": "strain B: Escherichia coli 1, phenol-red - glucose broth, bactericidal effect, read-out: MIC value"}, "[6]": {"details": "strain E: Pasteurella multocida, phenol-red - glucose broth, bactericidal effect"}, "[7]": {"details": "strain F: Aspergillus fumigatus, phenol-red - glucose broth, bactericidal effect"}, "[8]": {"details": "strain C: Escherichia coli 2, phenol-red - glucose broth, bactericidal effect, read-out: MIC value"}, "[9]": {"details": "strain A: Staphylococcus aureus, phenol-red - glucose broth, bactericidal effect"}, "[10]": {"details": "Escherichia coli, 1, read-out: MIC value"}, "[11]": {"details": "Escherichia coli, 2, read-out: MIC value"}}, "note": "Like-named read-outs stand apart in the source and are kept apart here.", "data": [{"molecule": "COc1cc(NS(=O)(=O)c2ccc(N)cc2)nc(OC)n1", "note": "[Sulfadimethoxine, 2,6-dimethoxy-4-sulfanilamidopyrimidine]", "values": [{"measurement": "MIC", "setting": "Salmonella typhimurium; [4]", "result": 200, "unit": "µg/mL"}, {"measurement": "MIC", "setting": "Escherichia coli 1; [5]", "result": 200, "unit": "µg/mL"}, {"measurement": "MIC", "setting": "Pasteurella multocida; [6]", "result": 200, "unit": "µg/mL"}, {"measurement": "MIC", "setting": "Aspergillus fumigatus; [7]", "result": 200, "unit": "µg/mL"}, {"measurement": "MIC", "setting": "Escherichia coli 2; [8]", "result": 200, "unit": "µg/mL"}, {"measurement": "toxicity compared with other sulfonamides", "setting": "[1]", "result": "one of the least toxic ones"}, {"measurement": "toxicity; damage of haemopoietic organs and vessel walls", "setting": "[1]", "result": "no damages of the haemopoietic organs and vessel walls"}, {"measurement": "MIC", "setting": "Staphylococcus aureus; [9]", "result": 200, "unit": "µg/mL"}]}, {"molecule": "O=S(=O)(O)O.Oc1cccc2cccnc12", "note": "[8-Hydroxyquinoline sulfate, 8-hydroxyquinoline sulfate]", "values": [{"measurement": "MIC", "setting": "Salmonella typhimurium; TYPHIMURIUM", "result": 50, "unit": "µg/mL"}, {"measurement": "MIC", "setting": "Escherichia coli 1; [10]", "result": 25, "unit": "µg/mL"}, {"measurement": "MIC", "setting": "Pasteurella multocida; Pasteurella multocida", "result": 1, "unit": "µg/mL"}, {"measurement": "MIC", "setting": "Aspergillus fumigatus; Aspergillus fumigatus", "result": 25, "unit": "µg/mL"}, {"measurement": "MIC", "setting": "Escherichia coli 2; [11]", "result": 25, "unit": "µg/mL"}, {"measurement": "MIC", "setting": "Staphylococcus aureus; Staphylococcus aureus", "result": 5, "unit": "µg/mL"}]}, {"molecule": "Oc1cccc2cccnc12", "note": "[8-hydroxyquinoline]", "values": [{"measurement": "dose necessary for the in vitro antibacterial effect", "setting": "[2]", "result": "a relatively low dose"}, {"measurement": "required therapeutic blood level in the blood plasma", "setting": "[3]", "result": "cannot develop in the blood plasma"}]}, {"molecule": "COc1cc(Cc2cnc(N)nc2N)cc(OC)c1OC", "note": "[Trimetoprim, 2,4-diamino-5-(3,4,5-trimethoxybenzyl)pyrimidine]", "values": [{"measurement": "MIC", "setting": "Salmonella typhimurium; [4]", "result": 200, "unit": "µg/mL"}, {"measurement": "MIC", "setting": "Escherichia coli 1; [5]", "result": 200, "unit": "µg/mL"}, {"measurement": "MIC", "setting": "Pasteurella multocida; [6]", "result": 100, "unit": "µg/mL"}, {"measurement": "MIC", "setting": "Aspergillus fumigatus; [7]", "result": 200, "unit": "µg/mL"}, {"measurement": "dose necessary for the in vitro antibacterial effect", "setting": "[2]", "result": "a very high dose"}, {"measurement": "MIC", "setting": "Escherichia coli 2; [8]", "result": 200, "unit": "µg/mL"}, {"measurement": "MIC", "setting": "Staphylococcus aureus; [9]", "result": 200, "unit": "µg/mL"}]}, {"molecule": "COc1ccc(Cc2cnc(N)nc2N)cc1OC", "note": "[Diaveridine, 2,4-diamino-5-(3,4-dimethoxybenzyl)pyrimidine]", "values": [{"measurement": "MIC", "setting": "Salmonella typhimurium; TYPHIMURIUM", "result": 200, "unit": "µg/mL"}, {"measurement": "MIC", "setting": "Escherichia coli 1; [10]", "result": 200, "unit": "µg/mL"}, {"measurement": "MIC", "setting": "Pasteurella multocida; Pasteurella multocida", "result": 150, "unit": "µg/mL"}, {"measurement": "MIC", "setting": "Aspergillus fumigatus; Aspergillus fumigatus", "result": 200, "unit": "µg/mL"}, {"measurement": "dose necessary for the in vitro antibacterial effect", "setting": "[2]", "result": "a very high dose"}, {"measurement": "MIC", "setting": "Escherichia coli 2; [11]", "result": 150, "unit": "µg/mL"}, {"measurement": "MIC", "setting": "Staphylococcus aureus; Staphylococcus aureus", "result": 200, "unit": "µg/mL"}]}, {"molecule": "Nc1ccc(S(=O)(=O)Nc2cnc3ccccc3n2)cc1", "note": "[sulfachinoxaline, N-(2-chinoxalinyl)sulfanilamide]", "values": [{"measurement": "toxicity; damage of haemopoietic organs and vessel walls", "setting": "[1]", "result": "the haemopoietic organs and vessel walls of the animals are significantly injured"}]}]}
